According to patent publication US8772230B2, “Niacin and/or trigonelline as a muscle stimulant” (DSM IP Assets B.V., priority 2009, dated 2014):
Counter-ions that a name gives are not always drawn. Like-named read-outs stand apart in the source and are kept apart here. Marks after values point to notes of the source that are not given here.

How the values were obtained:
[1] = system: Female C57B1/6 mice
Procedure: To test the effect of trigonelline in non-trained animals, we performed a maximal endurance test after a treatment period of three weeks.
Female C57B1/6 mice were delivered at a weight of 18-20 g and acclimatized to the facilities for a period of one week. At the beginning of the study the animals were randomized into two groups (10 animals per group). All mice were housed separately and had access to feed and water ad libidum. Animals were treated for three weeks by gavage with trigonelline-hydrochloride at a daily dosage of 300 mg/kg/BW and the control group received vehicle.
For acclimatization, animals were placed on the treadmill for 5 minutes after two weeks. The maximal endurance test was performed two day before the section of the animals.

[2] = system: Female C57B1/6 mice; details: three weeks tail suspension
From the text: To extend our in vitro and in vivo results we were also interested in testing the effects of trigonelline during skeletal muscle unloading (atrophy conditions). Therefore we conducted a second in vivo study were the hindlimbs of the animals were unloaded to induce skeletal muscle atrophy.
Tail suspension leads to skeletal muscle atrophy in the unloaded hindlimbs of the animals.
(§1) Female C57B1/6 mice were delivered at a weight of 18-20 g and acclimatized to the facilities for a period of one week. At the beginning of the study the animals were randomized into two groups (10 animals per group).
Thereafter the groups were placed in special cages and the hindlimbs were unloaded (tail suspension) for a duration of three weeks. All mice were housed separately and had access to feed and water ad libidum. Animals were treated for three weeks by gavage with trigonelline-hydrochloride at a daily dosage of 300 mg/kg/BW and the control group received vehicle.

[3] = system: Female C57B1/6 mice; details: three weeks
From the text: The gastrocnemius muscle from one hindlimb of the animals was removed to induce compensatory hypertrophy in the plantaris and soleus muscles by multiple mechanisms. This model increases the muscle weight under muscle load/training. It simulates the human condition of an average human who is physically active or an athlete to support skeletal muscle function during exercise.
as §1
The animals were anesthetized and the left hindlimb of the animals was fixed. A small incision was made through the skin over the gastrocnemius muscle. The complete gastrocnemius muscle and its tendons were exposed. Both heads of the gastrocnemius muscle were carefully dissected from the underlying intact muscles and care was taken not to rupture nerves and vessels. The skin was closed with a silk and the animals were returned separately into their cages. […] All animals received an analgesic. Animals were treated for three weeks by gavage with trigonelline-hydrochloride at a daily dosage of 300 mg/kg BW and the control group received vehicle.

[4] = system: C2C12 mouse myoblast cells; details: 10 μg/ml trigonelline monohydrate, 24 h, vs DMSO control
Procedure: C2C12 cells were seeded on 96 well collagen-I plates (1600 cells/well) in growth medium (Dulbecco's modified Eagle's medium (DMEM) supplemented with 10% FBS, 2 mM L-Glutamine, 1 mM pyruvate, 50 IU/ml penicillin, 50 ug/ml streptavidin) until it reaches 100% confluency, approximately 3 days. […] Final DMSO concentration was standardized to 0.5% in all wells. Cells were cultured at 37° C., with 5% CO2.
Cells were fixed with 3.7% formaldehyde solution (37% formaldehyde diluted in growth medium, sterile filtered before used) for 10 min. at room temperature, and washed twice with 1×DPBS (1× Dulbecco's Phosphate Buffered Saline). After permeabilization with 0.1% TritonX-100 (diluted in 1×DPBS) for 2 min. the samples were blocked with 1×DPBS plus 2% BSA for 1 h. For myocyte labelling, the cells were labelled with 1:20 anti-alpha-myosin heavy chain antibody (MF-20) for 1 hour. The samples were washed with 1×DPBS and fluorescently labelled with secondary antibody (1:250 Alexa 488 IgG antimouse secondary antibody plus 1:2000 Hoechst in 1×DPBS) for 1 h. Finally, the cells were washed twice with 1×DPBS and plates were sealed for imaging on the ArrayScan® HCS Reader.
For image analysis myosin labelled myotubes were quantified on the ArrayScan HCS Reader using BioApplication Morphology Explorer.V2. Myocytes were selected with Object Area larger than 500 and Object Total Intensity greater than 1000.

[5] = 300 mg/kg/BW daily by gavage, three weeks, untrained mice
[6] = 300 mg/kg/BW daily by gavage, computer tomography
[7] = 300 mg/kg BW daily by gavage, computer tomography
[8] = 300 mg/kg BW daily by gavage, non-operated leg

C[n+]1cccc(C(=O)[O-])c1 [Trigonelline-hydrochloride, trigonelline-hydrochloride]
Gastrocnemius-Plantaris-Soleus muscle weight (whole leg)/body weight [1, 5]: 5.41 mg/g | M. gastrocnemius wet weight [1, 5]: 100.66 mg | M. gastrocnemius wet weight/body weight [1, 5]: 4.57 mg/g | M. plantaris wet weight [1, 5]: 12.12 mg | M. plantaris wet weight/body weight [1, 5]: 0.55 mg/g | M. soleus wet weight [1, 5]: 6.29 mg | M. soleus wet weight/body weight [1, 5]: 0.29 mg/g | Mean running time ([1]; 300 mg/kg/BW daily by gavage, three weeks, untrained mice, treadmill): 38.70 min | Gastrocnemius-Plantaris-Soleus muscle weight (whole leg)/body weight ([2]; 300 mg/kg/BW daily by gavage): 4.89* mg/g | M. gastrocnemius wet weight ([2]; 300 mg/kg/BW daily by gavage): 86.01* mg | M. gastrocnemius wet weight/body weight ([2]; 300 mg/kg/BW daily by gavage): 4.16* mg/g | M. plantaris wet weight ([2]; 300 mg/kg/BW daily by gavage): 10.53 mg | M. plantaris wet weight/body weight ([2]; 300 mg/kg/BW daily by gavage): 0.51* mg/g | M. soleus wet weight ([2]; 300 mg/kg/BW daily by gavage): 4.62 mg | M. soleus wet weight/body weight ([2]; 300 mg/kg/BW daily by gavage): 0.22 mg/g | Muscle cross-sectional area [2, 6]: 27.8 mm^2 | Total leg cross-sectional area [2, 6]: 30.4 mm^2 | increase of wet weight of the gastrocnemius muscle (relative to the body weight) ([2]; trigonelline-hydrochloride 300 mg/kg/BW daily, vs control (FIG. 3), statistically significant): 9% | Muscle cross-sectional area - non operated leg [3, 7]: 32.15 mm^2 | Muscle cross-sectional area - operated leg [3, 7]: 23.72 mm^2 | Total leg cross-sectional area - non operated leg [3, 7]: 35.05 mm^2 | Total leg cross-sectional area - operated leg [3, 7]: 26.79 mm^2 | Gastrocnemius-Plantaris-Soleus muscle weight (whole leg)/body weight (non-operated leg) [3, 8]: 5.50 mg/g | M. gastrocnemius wet weight (non-operated leg) [3, 8]: 99.3 mg | M. gastrocnemius wet weight/body weight (non-operated leg) [3, 8]: 4.57 mg/g | M. plantaris wet weight (non-operated leg) [3, 8]: 13 mg | M. plantaris wet weight/body weight (non-operated leg) [3, 8]: 0.60 mg/g | M. soleus wet weight (non-operated leg) [3, 8]: 7.2 mg | M. soleus wet weight/body weight (non-operated leg) [3, 8]: 0.33 mg/g

C[n+]1cccc(C(=O)[O-])c1 [Trigonelline]
wet weight of the gastrocnemius muscle vs control (in words) ([1]; three weeks treatment, untrained mice (FIG. 4)): equal in both groups | increase of differentiation in C2C12 mouse myoblast cells (number of myocytes) [4]: 36% | increase of wet weight of the non-operated gastrocnemius muscle (relative to the body weight) ([3]; trigonelline-hydrochloride 300 mg/kg BW daily, vs control (FIG. 2)): 7%
